Results from patent publication US20230382888A1, “HDAC INHIBITOR SOLID STATE FORMS” (Viracta Subsidiary, Inc., priority 2020, published 2023).
In brackets after ≈: the same amount, converted by molar mass. Entries after “also recorded” stand apart in the source; their conditions may differ. Where a name gives a salt, the structure may show the parent alone. Blank lines part the entries; values can stand above or below the compound they belong to.

Columns and labels:
[1] = Thermodynamic aqueous solubility; type: physicochemical; conditions: for pH of saturated solution: water, after 24 hours equilibration at 25° C.
Method: Aqueous solubility was determined by suspending sufficient compound in 0.5 ml deionized water to give a maximum final concentration of 40 mg/ml of the parent free-form of the compound. The suspension was equilibrated at 25° C., on a Heidolph plate shaker set to 750 rpm for 24 hours. After equilibration, the appearance was noted and the pH of the saturated solution was measured. Samples forming suspensions were centrifuged for 4 min at 13,500 rpm. Samples were then filtered through a glass fiber C filter (particle retention 1.2 μm), before dilution with H2 O as appropriate. Quantitation was by HPLC (see Table 2 for parameters) with reference to a standard solution of approximately 0.15 mg/ml in DMSO. Different volumes of the standard, diluted and undiluted sample solutions were injected. The solubility was calculated using the peak areas determined by integration of the peak found at the same retention time as the principal peak in the standard injection. Analysis was performed on an Agilent HP1100/Infinity II 1260 series system equipped with a diode array detector and using OpenLAB software.

[2] = Intrinsic dissolution rate (IDR) in FaSSGF; type: physicochemical; conditions: Fasted State Simulated Gastric Fluid
[3] = Static storage stability at elevated temperature/humidity (XRPD, HPLC); type: physicochemical; conditions: for Solid form by XRPD after static storage: 7 days (1 week); for HPLC purity after static storage / Appearance after static storage: 1 week
[4] = Gravimetric vapour sorption (GVS); type: physicochemical; conditions: for Hygroscopicity by GVS: 25° C.; for XRPD post-GVS (solid form): residue after GVS; for Water uptake, first sorption cycle: 40-90% RH; for Starting water content in GVS: at 40% RH
Method: Sorption isotherms were obtained using a SMS DVS Intrinsic moisture sorption analyser, controlled by DVS Intrinsic Control software. The sample temperature was maintained at 25° C. by the instrument controls. The humidity was controlled by mixing streams of dry and wet nitrogen, with a total flow rate of 200 ml/min. The relative humidity was measured by a calibrated Rotronic probe (dynamic range of 1.0 — 100% RH), located near the sample. The weight change, (mass relaxation) of the sample as a function of % RH was constantly monitored by a microbalance (accuracy ±0.005 mg). Typically, 20-30 mg of sample was placed in a tared mesh stainless steel basket under ambient conditions. The sample was loaded and unloaded at 40% RH and 25° C. (typical room conditions). A moisture sorption isotherm was performed as outlined below (2 scans per complete cycle). The standard isotherm was performed at 25° C. at 10% RH intervals over a 0-90% RH range. Typically, a double cycle (4 scans) was carried out. Data analysis was carried out within Microsoft Excel using the DVS Analysis Suite. [table]

[5] = type: physicochemical
Source text: There was insufficient residue to characterize these further.

Compound: O=C(NO)c1cnc(N2C[C@@H]3[C@H](C2)[C@H]3NCc2ccc3cc(F)ccc3n2)nc1 [Compound 1, N-hydroxy-2-{6-[(6-fluoro-quinolin-2-ylmethyl)-amino]-3-aza-bicyclo[3.1.0]hex-3-yl}pyrimidine-5-carboxamide]
Solubility in water ([1]; deionized water, 25° C., 24 hours, maximum final concentration 40 mg/ml of parent free-form, listed as Free base): essentially insoluble in water

Compound: O=C(NO)c1cnc(N2C[C@@H]3[C@H](C2)[C@H]3NCc2ccc3cc(F)ccc3n2)nc1 [Free Base Form A, N-hydroxy 2-{6-[(6-fluoro-quinolin-2-ylmethyl)-amino]-3-aza-bicyclo[3.1.0]hex-3-yl}pyrimidine-5-carboxamide]
IDR in FaSSGF [2]: 1.1 mg/min/cm^2 | solubility at 24 h ([1]; thermodynamic from solid, deionized water, 25° C., 24 hours, maximum final concentration 40 mg/ml of parent free-form): 1 µg/mL (≈ 2.54 µM) | pH of saturated solution [1]: (pH = 7.4)

Compound: O=C(NO)c1cnc(N2C[C@@H]3[C@H](C2)[C@H]3NCc2ccc3cc(F)ccc3n2)nc1 [Free Base Form B, N-hydroxy 2-{6-[(6-fluoro-quinolin-2-ylmethyl)-amino]-3-aza-bicyclo[3.1.0]hex-3-yl}pyrimidine-5-carboxamide]
IDR in FaSSGF [2]: 1.8 mg/min/cm^2 | Solubility in water ([1]; deionized water, 25° C., 24 hours, maximum final concentration 40 mg/ml of parent free-form): 1 µg/mL (≈ 2.54 µM) | pH of saturated solution [1]: (pH = 7.4)

Compound: O=C(NO)c1cnc(N2C[C@@H]3[C@H](C2)[C@H]3NCc2ccc3cc(F)ccc3n2)nc1 [Mesylate Form 2, N-hydroxy 2-{6-[(6-fluoro-quinolin-2-ylmethyl)-amino]-3-aza-bicyclo[3.1.0]hex-3-yl}pyrimidine-5-carboxamide]
Solid form by XRPD after static storage ([3]; 25° C./97% RH): unchanged; also recorded: Mesylate Form 2 | Solid form by XRPD after static storage ([3]; 25° C./97% RH, listed as Form 2): stable after 1 week | Solid form by XRPD after static storage ([3]; 40° C./75% RH): unchanged; also recorded: Mesylate Form 2 | Solid form by XRPD after static storage ([3]; 40° C./75% RH, listed as Form 2): stable after 1 week | Hygroscopicity by GVS [4]: slightly hygroscopic | Hygroscopicity by GVS ([4]; listed as Form 2): slightly hygroscopic | XRPD post-GVS (solid form) [4]: unchanged; also recorded: XRPD Post-GVS: Mesylate Form 2

Compound: O=C(NO)c1cnc(N2C[C@@H]3[C@H](C2)[C@H]3NCc2ccc3cc(F)ccc3n2)nc1 [Mesylate Form 3, N-hydroxy 2-{6-[(6-fluoro-quinolin-2-ylmethyl)-amino]-3-aza-bicyclo[3.1.0]hex-3-yl}pyrimidine-5-carboxamide]
Solubility residue (solid form) [5]: new solubility residue patterns | HPLC purity after static storage ([3]; 25° C./97% RH): 96.6% | Solid form by XRPD after static storage ([3]; 25° C./97% RH): remained unchanged; also recorded: Mesylate Form 3 | Solid form by XRPD after static storage ([3]; 25° C./97% RH, listed as Form 3): remained as Mesylate Form 3 | HPLC purity after static storage ([3]; 40° C./75% RH): 97.0% | Solid form by XRPD after static storage ([3]; 40° C./75% RH): conversion to the sesquihydrate Mesylate Form 5 | Solid form by XRPD after static storage ([3]; 40° C./75% RH, listed as Form 3): convert to Mesylate Form 5 | Water loss, desorption cycle 1 ([4]; 30-20% RH): Desorption Cycle 1 22% water loss from 30-20% RH | Water uptake, first sorption cycle [4]: 2% | Water content on desorption cycle 1 ([4]; at 30% RH): 24.3% | Starting water content in GVS [4]: 25.1% | XRPD post-GVS (solid form) [4]: XRPD Post-GVS: Poorly crystalline broad reflections may match

Compound: O=C(NO)c1cnc(N2C[C@@H]3[C@H](C2)[C@H]3NCc2ccc3cc(F)ccc3n2)nc1 [Mesylate Form 4, N-hydroxy 2-{6-[(6-fluoro-quinolin-2-ylmethyl)-amino]-3-aza-bicyclo[3.1.0]hex-3-yl}pyrimidine-5-carboxamide]
Thermodynamic solubility in FaSSGF [5]: 24000 µg/mL | HPLC purity after static storage ([3]; 25° C./97% RH): 99.5% | Solid form by XRPD after static storage ([3]; 25° C./97% RH): conversion to Mesylate Form 1; also recorded: converted to Mesylate Form 1 | HPLC purity after static storage ([3]; 40° C./75% RH): 99.4% | Water uptake, first sorption cycle [4]: 0.7% | Starting water content in GVS [4]: 9.4% | Gradual water loss, desorption cycle 1 ([4]; down to 20% RH): 0.8% | XRPD post-GVS (solid form) [4]: conversion to Mesylate Form 1; also recorded: Post-GVS: Converted to Mesylate Form 1 by XRPD

Further lines, with some results ahead:

Solubility residue (solid form) [5]: new solubility residue patterns | HPLC purity after static storage ([3]; 25° C./97% RH): 99.5% | HPLC purity after static storage ([3]; 40° C./75% RH): 99.5% | Hygroscopicity by GVS [4]: hygroscopic
Compound: O=C(NO)c1cnc(N2C[C@@H]3[C@H](C2)[C@H]3NCc2ccc3cc(F)ccc3n2)nc1 [Mesylate Form 5, N-hydroxy 2-{6-[(6-fluoro-quinolin-2-ylmethyl)-amino]-3-aza-bicyclo[3.1.0]hex-3-yl}pyrimidine-5-carboxamide]
Solid form by XRPD after static storage ([3]; 25° C./97% RH): remained as Mesylate Form 5; also recorded: Unchanged: Mesylate Form 5 | Solid form by XRPD after static storage ([3]; 40° C./75% RH): remained as Mesylate Form 5; also recorded: Unchanged: Mesylate Form 5 | XRPD post-GVS (solid form) [4]: remaining unchanged; also recorded: stable after GVS analysis; also recorded: XRPD Post-GVS: Mesylate Form 5

Solid form by XRPD after static storage ([3]; 25° C./97% RH): converted to Mesylate Form 1 | Solid form by XRPD after static storage ([3]; 40° C./75% RH): converted to Mesylate Form 1
Compound: O=C(NO)c1cnc(N2CC3C(C2)C3NCc2ccc3cc(F)ccc3n2)nc1 (stereo not shown) [Mesylate Form 6, N-hydroxy 2-{6-[(6-fluoro-quinolin-2-ylmethyl)-amino]-3-aza-bicyclo[3.1.0]hex-3-yl}pyrimidine-5-carboxamide]

Solid form by XRPD after static storage ([3]; 25° C./97% RH): converted to Mesylate Form 1 | Solid form by XRPD after static storage ([3]; 40° C./75% RH): converted to Mesylate Form 1
Compound: O=C(NO)c1cnc(N2CC3C(C2)C3NCc2ccc3cc(F)ccc3n2)nc1 (stereo not shown) [Mesylate Form 7, N-hydroxy 2-{6-[(6-fluoro-quinolin-2-ylmethyl)-amino]-3-aza-bicyclo[3.1.0]hex-3-yl}pyrimidine-5-carboxamide]

Solid form by XRPD after static storage ([3]; 25° C./97% RH): converted to Mesylate Form 1 | Solid form by XRPD after static storage ([3]; 40° C./75% RH): converted to Mesylate Form 1
Compound: O=C(NO)c1cnc(N2CC3C(C2)C3NCc2ccc3cc(F)ccc3n2)nc1 (stereo not shown) [Mesylate Form 8, N-hydroxy 2-{6-[(6-fluoro-quinolin-2-ylmethyl)-amino]-3-aza-bicyclo[3.1.0]hex-3-yl}pyrimidine-5-carboxamide]

Solid form by XRPD after static storage ([3]; 25° C./97% RH): Poorly crystalline-Mesylate Form 1 | Solid form by XRPD after static storage ([3]; 40° C./75% RH): Mesylate Form 1
Compound: O=C(NO)c1cnc(N2CC3C(C2)C3NCc2ccc3cc(F)ccc3n2)nc1 (stereo not shown) [Mesylate Form 9, N-hydroxy 2-{6-[(6-fluoro-quinolin-2-ylmethyl)-amino]-3-aza-bicyclo[3.1.0]hex-3-yl}pyrimidine-5-carboxamide]
Appearance after static storage ([3]; 25° C./97% RH): Sample appeared wet-white solid still present | Appearance after static storage ([3]; 40° C./75% RH): color change to yellow; also recorded: Sample appeared ‘damp’-yellow solid present

Solid form by XRPD after static storage ([3]; 25° C./97% RH, listed as amorphous): largely amorphous | Solid form by XRPD after static storage ([3]; 40° C./75% RH, listed as amorphous): largely amorphous
Compound: O=C(NO)c1cnc(N2CC3C(C2)C3NCc2ccc3cc(F)ccc3n2)nc1 (stereo not shown) [amorphous mesylate salt, N-hydroxy 2-{6-[(6-fluoro-quinolin-2-ylmethyl)-amino]-3-aza-bicyclo[3.1.0]hex-3-yl}pyrimidine-5-carboxamide]
Solid form by XRPD after static storage ([3]; 25° C./97% RH): Amorphous, with low-level peak at 3.7° 2θ | Solid form by XRPD after static storage ([3]; 40° C./75% RH): Amorphous, with low-level peak at 3.7° 2θ
